Data from patent US10472341B2, “Bicyclic tetrahydrothiazepine derivatives useful for the treatment of neoplastic and/or infectious diseases” (APEIRON BIOLOGICS AG, priority 2015, dated 2019).

Test system: CD4 T cells
Experiment: TCR-mediated activation of isolated CFSE-labeled CD4 T cells (anti-CD3/anti-CD28): cytokines, proliferation, CD25
Format: cell-based, human
Settings: for CD25 expression [% positive cells] Average / Cell Proliferation [Cell divisions/cell] Average / IFN-gamma production [ng/ml] Average / IL-2 production [ng/ml] Average / TNF-alpha production [ng/ml] Average: anti-CD3/anti-CD28
Protocol: • Buffy coat content was transferred to sterile plastic bottle and filled up to 480 ml with PBS, and distributed equally to 16×50 ml tubes (30 ml/tube) • Underlayed with ˜11 ml Lymphoprep and centrifuged 20 min (2200 rpm) • The interphase containing lymphocytes was taken off with transfer pipette, cells were washed twice with PBS and pooled to one tube to determine cell count (Coulter Diff ACT) Isolation of Immune Cell Subfractions from PBMCs by MACS • PBMCs were resuspended in MACS buffer (80 μl MACS-buffer/10^7 cells) and cells were isolated with Auto-MACS device using respective kits following manufacturer's recommendations TCR Stimulation and Measurement of T Cell Activation
Isolated T cells were plated in Xvivo medium at 1.5*10 ^5 cells per in 96 well culture plates and TCR-stimulated with anti-CD3/28 mAbs in the presence of compound as indicated. Cytokine production was determined at 24 h or 48 h following TCR stimulation in cell culture supernatants using commercially available ELISA kits (BD and eBioscience) as recommended by the manufacturer. T cell proliferation and CD25 expression (CD25-PC5 reagent purchased from Beckman Coulter) was determined by flow cytometry (Beckman-Coulter FC500) and analysed with Kaluza Software. For measurement of CD69 expression, isolated CD4 and CD8 T cells were plated in Xvivo medium at […] per in 96 well culture plates and TCR-stimulated with anti-CD3/28 mAbs in the presence of compound. CD69 expression was determined at 24 h following TCR stimulation by flow cytometry (CD4eF450, CD8APCeF780 and CD69-PC7 reagent purchased from eBioscience) and analysed with Kaluza Software.
Isolated CD4 T cells were CFSE-labeled and stimulated with anti-CD3 and anti-CD28 antibodies.

CCCCNC(=O)c1ccc2c(c1)N(Cc1ccc(OC(F)(F)F)cc1)C(=O)[C@@H](N)CS2(=O)=O.Cl [Example 67, (3R)-3-amino-N-butyl-1,1,4-trioxo-5-{[4-(trifluoromethoxy)phenyl]methyl}-2,3,4,5-tetrahydro-1λ^6,5-benzothiazepine-7-carboxamide hydrochloride]
CD25 expression [% positive cells] Average (0.05 μM): 47.88 % positive cells | Cell Proliferation [Cell divisions/cell] Average (0.05 μM): 0.49 Cell divisions/cell | IFN-gamma production [ng/ml] Average (0.05 μM): 0.06 ng/mL | IL-2 production [ng/ml] Average (0.05 μM): 0.13 ng/mL | TNF-alpha production [ng/ml] Average (0.05 μM): 0.26 ng/mL | CD25 expression [% positive cells] Average (0.1 μM): 50.80 % positive cells | Cell Proliferation [Cell divisions/cell] Average (0.1 μM): 0.58 Cell divisions/cell | IFN-gamma production [ng/ml] Average (0.1 μM): 0.10 ng/mL | IL-2 production [ng/ml] Average (0.1 μM): 0.21 ng/mL | TNF-alpha production [ng/ml] Average (0.1 μM): 0.42 ng/mL | CD25 expression [% positive cells] Average (0.25 μM): 59.10 % positive cells | Cell Proliferation [Cell divisions/cell] Average (0.25 μM): 0.84 Cell divisions/cell | IFN-gamma production [ng/ml] Average (0.25 μM): 0.23 ng/mL | IL-2 production [ng/ml] Average (0.25 μM): 0.56 ng/mL | TNF-alpha production [ng/ml] Average (0.25 μM): 0.71 ng/mL | CD25 expression [% positive cells] Average (0.5 μM): 69.50 % positive cells | Cell Proliferation [Cell divisions/cell] Average (0.5 μM): 1.03 Cell divisions/cell | IFN-gamma production [ng/ml] Average (0.5 μM): 0.40 ng/mL | IL-2 production [ng/ml] Average (0.5 μM): 1.00 ng/mL | TNF-alpha production [ng/ml] Average (0.5 μM): 1.12 ng/mL | CD25 expression [% positive cells] Average (1 μM): 79.50 % positive cells | Cell Proliferation [Cell divisions/cell] Average (1 μM): 1.20 Cell divisions/cell | IFN-gamma production [ng/ml] Average (1 μM): 0.64 ng/mL | IL-2 production [ng/ml] Average (1 μM): 2.50 ng/mL | TNF-alpha production [ng/ml] Average (1 μM): 1.65 ng/mL | CD25 expression [% positive cells] Average (2.5 μM): 77.71 % positive cells | Cell Proliferation [Cell divisions/cell] Average (2.5 μM): 1.35 Cell divisions/cell | IFN-gamma production [ng/ml] Average (2.5 μM): 1.46 ng/mL | IL-2 production [ng/ml] Average (2.5 μM): 7.48 ng/mL | TNF-alpha production [ng/ml] Average (2.5 μM): 4.11 ng/mL | CD25 expression [% positive cells] Average (5 μM): 79.53 % positive cells | Cell Proliferation [Cell divisions/cell] Average (5 μM): 1.40 Cell divisions/cell | IFN-gamma production [ng/ml] Average (5 μM): 2.22 ng/mL | IL-2 production [ng/ml] Average (5 μM): 11.11 ng/mL | TNF-alpha production [ng/ml] Average (5 μM): 5.47 ng/mL | CD25 expression [% positive cells] Average (10 μM): 79.64 % positive cells | Cell Proliferation [Cell divisions/cell] Average (10 μM): 1.38 Cell divisions/cell | IFN-gamma production [ng/ml] Average (10 μM): 2.81 ng/mL | IL-2 production [ng/ml] Average (10 μM): 13.62 ng/mL | TNF-alpha production [ng/ml] Average (10 μM): 7.19 ng/mL | CD25 expression [% positive cells] Average (20 μM): 75.14 % positive cells | Cell Proliferation [Cell divisions/cell] Average (20 μM): 1.33 Cell divisions/cell | IFN-gamma production [ng/ml] Average (20 μM): 3.29 ng/mL | IL-2 production [ng/ml] Average (20 μM): 15.11 ng/mL | TNF-alpha production [ng/ml] Average (20 μM): 9.31 ng/mL | T cell proliferation and expression of the surface activation marker CD25 (anti-CD3 and anti-CD28): enhanced | production of key cytokines (IL-2, IFN-gamma, TNF-alpha) (anti-CD3 and anti-CD28): strongly enhanced
